Data reported in PubChem BioAssay (NCI).
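Assay format: 96-well plates, 48-hour exposure. At the GI50, growth is halved. TGI: total growth inhibition.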

Columns and labels:
Test in all cases: NCI anticancer screen, dose series, 48 h; in the data active = GI50 below about 0.43 µM; inactive = the rest
SK-MEL-5 melanoma = system: SK-MEL-5 melanoma
SN12C renal = system: SN12C renal
BT-549 breast = system: BT-549 breast
PC-3 prostate = system: PC-3 prostate
M14 melanoma = system: M14 melanoma
T-47D breast = system: T-47D breast
HCC-2998 colon = system: HCC-2998 colon
SF-539 CNS = system: SF-539 CNS
UACC-257 melanoma = system: UACC-257 melanoma
786-0 renal = system: 786-0 renal
EKVX NSCLC = system: EKVX NSCLC
OVCAR-8 ovarian = system: OVCAR-8 ovarian
HCT-15 colon = system: HCT-15 colon
OVCAR-4 ovarian = system: OVCAR-4 ovarian
SW-620 colon = system: SW-620 colon
U251 CNS = system: U251 CNS
CAKI-1 renal = system: CAKI-1 renal
MCF7 breast = system: MCF7 breast
A549 NSCLC = system: A549 NSCLC
SK-OV-3 ovarian = system: SK-OV-3 ovarian
TK-10 renal = system: TK-10 renal
NCI-H226 lung = system: NCI-H226 lung
CCRF-CEM leukemia = system: CCRF-CEM leukemia
KM12 colon = system: KM12 colon
MOLT-4 leukemia = system: MOLT-4 leukemia
SNB-75 CNS = system: SNB-75 CNS
OVCAR-5 ovarian = system: OVCAR-5 ovarian
HCT-116 colon = system: HCT-116 colon
OVCAR-3 ovarian = system: OVCAR-3 ovarian
NCI-H460 lung = system: NCI-H460 lung
A498 renal = system: A498 renal
SF-268 CNS = system: SF-268 CNS
HS 578T breast = system: HS 578T breast
SK-MEL-2 melanoma = system: SK-MEL-2 melanoma
HOP-92 NSCLC = system: HOP-92 NSCLC
NCI-H522 lung = system: NCI-H522 lung
SR leukemia = system: SR leukemia
UO-31 renal = system: UO-31 renal
IGROV1 ovarian = system: IGROV1 ovarian
SK-MEL-28 melanoma = system: SK-MEL-28 melanoma
ACHN renal = system: ACHN renal
SNB-19 CNS = system: SNB-19 CNS
MDA-MB-231 breast = system: MDA-MB-231 breast
SF-295 CNS = system: SF-295 CNS
DU-145 prostate = system: DU-145 prostate
HOP-62 NSCLC = system: HOP-62 NSCLC
COLO 205 colon = system: COLO 205 colon
HT29 colon = system: HT29 colon
MALME-3M melanoma = system: MALME-3M melanoma
LOX IMVI melanoma = system: LOX IMVI melanoma
RPMI-8226 leukemia = system: RPMI-8226 leukemia
NCI-H23 lung = system: NCI-H23 lung
MDA-MB-435 = system: MDA-MB-435
UACC-62 melanoma = system: UACC-62 melanoma
NCI/ADR-RES ovarian = system: NCI/ADR-RES ovarian
K-562 leukemia = system: K-562 leukemia
HL-60(TB) leukemia = system: HL-60(TB) leukemia

O=C(CCCCCCNC(=O)C(O)(O)C(F)(F)F)Nc1ccc(Cl)cc1
10.1 µM: TGI (OVCAR-3 ovarian)
15.1 µM: TGI (COLO 205 colon)
8.94 µM: TGI (LOX IMVI melanoma)
8.39 µM: TGI (HOP-92 NSCLC)
17.6 µM: TGI (SK-MEL-2 melanoma)
34.2 µM: TGI (NCI-H23 lung)
> 36.8 µM: TGI (PC-3 prostate) | TGI (M14 melanoma) | TGI (T-47D breast) | TGI (SF-539 CNS) | TGI (UACC-257 melanoma) | TGI (786-0 renal) | TGI (EKVX NSCLC) | TGI (OVCAR-8 ovarian) | TGI (HCT-15 colon) | TGI (OVCAR-4 ovarian) | TGI (CAKI-1 renal) | TGI (MCF7 breast) | TGI (A549 NSCLC) | TGI (TK-10 renal) | TGI (NCI-H226 lung) | TGI (CCRF-CEM leukemia) | TGI (KM12 colon) | TGI (MOLT-4 leukemia) | TGI (SNB-75 CNS) | TGI (HCT-116 colon) | TGI (NCI-H460 lung) | TGI (SR leukemia) | TGI (DU-145 prostate) | TGI (HOP-62 NSCLC) | TGI (HT29 colon) | TGI (RPMI-8226 leukemia) | TGI (MDA-MB-435) | TGI (K-562 leukemia) | TGI (HL-60(TB) leukemia)
inactive: GI50 (SK-MEL-5 melanoma) 5.07 µM | GI50 (SN12C renal) 7.66 µM | GI50 (BT-549 breast) 6.72 µM | GI50 (PC-3 prostate) 5.01 µM | GI50 (M14 melanoma) 9.99 µM | GI50 (T-47D breast) 5.76 µM | GI50 (HCC-2998 colon) 7.62 µM | GI50 (SF-539 CNS) 8.85 µM | GI50 (UACC-257 melanoma) 7.85 µM | GI50 (786-0 renal) 9.48 µM | GI50 (EKVX NSCLC) 11.2 µM | GI50 (OVCAR-8 ovarian) 3.5 µM | GI50 (HCT-15 colon) 8.18 µM | GI50 (OVCAR-4 ovarian) 15.7 µM | GI50 (SW-620 colon) 4.02 µM | GI50 (U251 CNS) 4.91 µM | GI50 (CAKI-1 renal) 8.98 µM | GI50 (MCF7 breast) 10.8 µM | GI50 (A549 NSCLC) 9.56 µM | GI50 (SK-OV-3 ovarian) 5.56 µM | GI50 (TK-10 renal) 1.55 µM | GI50 (NCI-H226 lung) 9.49 µM | GI50 (CCRF-CEM leukemia) 2.73 µM | GI50 (KM12 colon) 7.92 µM | GI50 (MOLT-4 leukemia) 2.87 µM | GI50 (SNB-75 CNS) 8.76 µM | GI50 (OVCAR-5 ovarian) 4.26 µM | GI50 (HCT-116 colon) 1.59 µM | GI50 (OVCAR-3 ovarian) 3.83 µM | GI50 (NCI-H460 lung) 4.59 µM | GI50 (A498 renal) 1.38 µM | GI50 (SF-268 CNS) 7.27 µM | GI50 (HS 578T breast) 3.68 µM | GI50 (SK-MEL-2 melanoma) 5.41 µM | GI50 (HOP-92 NSCLC) 1.06 µM | GI50 (NCI-H522 lung) 4.68 µM | GI50 (SR leukemia) 2.44 µM | GI50 (UO-31 renal) 5.25 µM | GI50 (IGROV1 ovarian) 5.11 µM | GI50 (SK-MEL-28 melanoma) 5.4 µM | GI50 (ACHN renal) 6.01 µM | GI50 (SNB-19 CNS) 7.56 µM | GI50 (MDA-MB-231 breast) 5.2 µM | GI50 (SF-295 CNS) 5.77 µM | GI50 (DU-145 prostate) 8.13 µM | GI50 (HOP-62 NSCLC) 7.75 µM | GI50 (COLO 205 colon) 5.83 µM | GI50 (HT29 colon) 6.28 µM | GI50 (MALME-3M melanoma) 2.83 µM | GI50 (LOX IMVI melanoma) 4.07 µM | GI50 (RPMI-8226 leukemia) 3.46 µM | GI50 (NCI-H23 lung) 7.08 µM | GI50 (MDA-MB-435) 7.13 µM | GI50 (UACC-62 melanoma) 3.19 µM | GI50 (NCI/ADR-RES ovarian) 6.16 µM | GI50 (K-562 leukemia) 1.82 µM | GI50 (HL-60(TB) leukemia) 3.64 µM
10 µM: TGI (SK-MEL-5 melanoma)
30.1 µM: TGI (HS 578T breast)
12.5 µM: TGI (A498 renal)
35.6 µM: TGI (SN12C renal)
20.9 µM: TGI (OVCAR-5 ovarian)
16.3 µM: TGI (SW-620 colon)
23.7 µM: TGI (UO-31 renal)
27.3 µM: TGI (MDA-MB-231 breast)
28.2 µM: TGI (ACHN renal)
9.28 µM: TGI (UACC-62 melanoma)
22 µM: TGI (HCC-2998 colon) | TGI (MALME-3M melanoma)
34.3 µM: TGI (SK-MEL-28 melanoma)
28.7 µM: TGI (NCI/ADR-RES ovarian)
30.9 µM: TGI (SNB-19 CNS)
19.8 µM: TGI (NCI-H522 lung) | TGI (IGROV1 ovarian)
21 µM: TGI (U251 CNS)
26 µM: TGI (SK-OV-3 ovarian)
24.5 µM: TGI (SF-268 CNS)
35 µM: TGI (BT-549 breast)
13.1 µM: TGI (SF-295 CNS)
